Patent US8394809B2, “Phenoxy-substituted pyrimidines as opioid receptor modulators” (priority 2009, dated 2013)
Several values for one entry are separate records, joined by “and”; a condition that tells them apart may be missing. Equal values may be shown once. Read-outs that look alike come from different tables or passages of the source.

Tests used:
mu opioid receptor = target: T1, mu opioid receptor (Rattus norvegicus, UniProt P33535); assay: Rat brain mu opioid receptor binding assay
T1 construct: the forebrains were homogenized in Tris buffer in a Teflon®-glass homogenizer; from tissue; host or cells: forebrain of male Wistar rats, particulate membrane preparation
Description: (§1) Procedure: Male, Wistar rats (150-250 g, VAF, Charles River, Kingston, N.Y.) were killed by CO2, and their brains were removed and placed immediately in ice cold Tris HCl buffer (50 mM, pH 7.4). The forebrains were separated from the remainder of the brain by a coronal transection, beginning dorsally at the colliculi and passing ventrally through the midbrain-pontine junction. After dissection, the forebrains were homogenized in Tris buffer in a Teflon®-glass homogenizer. The homogenate was diluted to a concentration of 1 g of forebrain tissue per 80 mL Tris and centrifuged at 39,000×g for 10 min. The pellet was resuspended in the same volume of Tris buffer containing 5 mM MgCl2 with several brief pulses from a Polytron homogenizer. This particulate preparation was used for the mu opioid binding assays. Following incubation with the mu selective peptide ligand, ˜0.8 nM [^3H]DAMGO, at 25° C. for 2.5 h in a 96-well plate with total assay volume of 1 mL, the plate contents were filtered through Wallac filtermat B sheets on a Tomtec 96-well harvester. […] To each sample area 2×40 μL of Betaplate Scint scintillation fluid (LKB) was added and the radioactivity was quantifed on a LKB (Wallac) 1205 BetaPlate liquid scintillation counter.
(§2) Analysis: The data from the scintillation counter was used to calculate either the % inhibition compared to control binding (when only a single concentration of test compound was evaluated) or a Ki value (when a range of concentrations was tested). Percent inhibition was calculated as: [(total dpm−test compound dpm)/(total dpm-nonspecific dpm)]*100. Kd and Ki values were calculated using GraphPad PRISM data analysis program.

delta opioid receptor [1] = target: T2, delta opioid receptor (Rattus norvegicus, UniProt P33533); assay: Rat brain delta opioid receptor binding assay
T2 construct: the forebrains were homogenized in Tris buffer in a Teflon®-glass homogenizer; from tissue; host or cells: forebrain of male Wistar rats, particulate membrane preparation
Description: as §1, with “delta” for “mu”, “ligand ˜4” for “ligand, ˜0.8”, “[^3H]DPDPE or 0.25 nM [^3H]naltrindole” for “[^3H]DAMGO,”, “total” for “total assay”, “2×50” for “2×40”, “quantified” for “quantifed”
as §2

[2] = target: T3, mu opioid receptor (CHO-hMOR cell membranes) (Homo sapiens, UniProt P35372); assay: [35S]GTPγS binding assay in CHO-hMOR cell membranes (mu opioid functional assay); type: biochemical
T3 construct: host or cells: CHO cells (membranes purchased)

delta opioid receptor [3] = target: T4, delta opioid receptor (Mus musculus, UniProt P32300); assay: [35S]GTPγS binding assay in NG108-15 cell membranes (delta opioid functional assay); type: biochemical; conditions: for GTPγS δ-Rel Efficacy @200 nM: 200 nM compound, relative to calculated max of SNC80 dose response
T4 construct: NG108-15 cell membranes were purchased from Applied Cell Sciences (Rockville, Md.); host or cells: NG108-15 cell membranes (purchased)
Description: Methods: NG108-15 cell membranes were purchased from Applied Cell Sciences (Rockville, Md.). 5 mg/mL of membrane protein was suspended in 10 mM TRIS-HCl pH 7.2, 2 mM EDTA, 10% sucrose. Membranes were maintained at 4-8° C. A 1 mL volume of membranes was added into 10 mL cold binding assay buffer. The assay buffer contained 50 mM Tris, pH 7.6, 5 mM MgCl2, 100 mM NaCl, 1 mM DTT and 1 mM EGTA. The membrane suspension was homogenized twice with a Polytron, and centrifuged at 3000 rpm for 10 min. The supernatant was then centrifuged at 18,000 rpm for 20 min. Ten mL assay buffer was added into the pellet containing tube. The pellet and buffer were mixed with a Polytron.
Incubation procedure: The pellet membranes (75 μg/mL) were preincubated with SPA (10 mg/mL) at 25° C. for 45 min in the assay buffer. […] 200 nM of receptor agonists was used to stimulate [^35S]-GTPγS binding. The basal binding was tested in the absence of agonists and non-specific binding was tested in the presence of 10 μM unlabeled GTPγS.
Data % of Basal=(stimulated−non specific)*100/(basal−non specific). Relative Efficacy of a compound at 200 nM=(% of Basal of test compound at 200 nM)/(Calculated Max of SNC80 dose response. Curve in prism).

delta opioid receptor [4] = target: T4, delta opioid receptor; assay: as above; type: biochemical; conditions: for inhibition at 10 µM: read-out: GTPγS δ-opioid receptor % Inh @10 μM, 10 μM
delta opioid receptor [5] = target: T4, delta opioid receptor; assay: NG108-15, 24-well delta opioid receptor binding assay; conditions: NG108-15 cell membranes, ~0.2 nM [3H]Naltrindole; read-out: δ-binding NG108 cell membrane Ki
Description: Methods: NG108-15 cell membranes were purchased from Applied Cell Sciences (Rockville, Md.). 5 mg/mL of membrane protein was suspended in 10 mM TRIS-HCl pH 7.2, 2 mM EDTA, 10% sucrose. With several brief pulses from a Polytron homogenizer, each vial was homogenized in 5 mls of 50 mM Tris Buffer, pH 7.4. The homogenate was diluted in 50 mM Tris Buffer containing 5 mM MgCl2 to 330 ug/ml in the working solution for a final concentration of 133 ug/well. This particulate preparation was used for the 24-well delta opioid binding assay.
Following incubation with the delta selective ligand ˜0.2 nM [^3H]Naltrindole at 25° C. for 2.5 h in a 24-well plate with total volume of 1 mL, the plate contents were filtered through a UniFilter24, GF/B. This plate was presoaked in 0.3% PEI and filtered through a 24-well Harvester. The UniFilter24 was rinsed three times with 2 mL of 10 mM HEPES (pH 7.4), and dried in an oven at 37° C. for 1.5 hours. To each well, was added 150 μL of Scint0 (PerkinElmer, Cat#6013611). The plates were then read on a TopCount.
Analysis: The data from the scintillation counter were used to calculate either the % inhibition compared to control binding (when only a single concentration of test compound was evaluated) or a Ki value (when a range of concentrations was tested). Non-specific binding (N.S.—1 mM Naloxone) is used as the negative control, while the Total Binding (T.B.—Membrane and ligand only) is used as the positive control. If one concentration is screened, the % inhibition is calculated as (cpms of total binding minus cpms of compound) divided by (cpms of T.B. minus cpms of N.S). The triplicate % Inhibitions are averaged and reported. If multiple concentrations are generated, the values are analyzed using the one-site binding non-linear regression program in Prism to determine Ki values. The bottom and top values are globally shared. The triplicate Kis are then averaged and reported.

[6] = read-out: GTPγS δ-opioid receptor EC50
[7] = rat forebrain membranes, ~0.8 nM [3H]DAMGO, read-out: μ-binding Ki
[8] = rat forebrain membranes, 0.25 nM [3H]naltrindole, read-out: δ-binding (Naltrindole ligand) Ki

T1 sequence (P33535 whole entry): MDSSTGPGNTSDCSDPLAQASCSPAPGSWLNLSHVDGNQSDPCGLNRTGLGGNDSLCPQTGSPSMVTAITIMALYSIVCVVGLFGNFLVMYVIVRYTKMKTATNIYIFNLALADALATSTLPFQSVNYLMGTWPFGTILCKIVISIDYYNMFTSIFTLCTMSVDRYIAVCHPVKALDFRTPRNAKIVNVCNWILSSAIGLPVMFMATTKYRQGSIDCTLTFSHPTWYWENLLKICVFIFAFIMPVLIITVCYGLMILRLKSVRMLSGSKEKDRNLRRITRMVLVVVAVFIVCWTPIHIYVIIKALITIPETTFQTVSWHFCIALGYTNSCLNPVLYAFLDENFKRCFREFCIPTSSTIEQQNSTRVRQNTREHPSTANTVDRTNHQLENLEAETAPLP
T2 sequence (P33533 whole entry): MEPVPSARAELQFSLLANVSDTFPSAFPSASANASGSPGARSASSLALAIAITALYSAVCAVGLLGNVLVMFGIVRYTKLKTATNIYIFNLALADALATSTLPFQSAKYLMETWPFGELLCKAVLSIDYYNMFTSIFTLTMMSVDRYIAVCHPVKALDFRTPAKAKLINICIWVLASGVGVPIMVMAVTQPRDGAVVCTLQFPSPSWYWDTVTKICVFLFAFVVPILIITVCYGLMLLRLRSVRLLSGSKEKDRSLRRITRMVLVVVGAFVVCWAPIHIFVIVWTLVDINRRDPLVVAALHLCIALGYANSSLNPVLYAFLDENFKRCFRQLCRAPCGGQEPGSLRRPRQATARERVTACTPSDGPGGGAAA
T4 sequence (P32300 whole entry): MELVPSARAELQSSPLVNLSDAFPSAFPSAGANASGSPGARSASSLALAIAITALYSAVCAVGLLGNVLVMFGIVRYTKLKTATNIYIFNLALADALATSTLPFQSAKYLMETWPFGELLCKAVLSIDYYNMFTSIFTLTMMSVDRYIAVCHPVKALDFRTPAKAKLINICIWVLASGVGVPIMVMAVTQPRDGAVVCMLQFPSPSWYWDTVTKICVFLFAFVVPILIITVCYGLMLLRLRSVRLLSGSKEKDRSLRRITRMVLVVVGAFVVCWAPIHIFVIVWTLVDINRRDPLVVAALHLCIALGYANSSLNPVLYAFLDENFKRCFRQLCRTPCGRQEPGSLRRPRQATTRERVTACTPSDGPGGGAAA
T3 sequence (P35372 whole entry): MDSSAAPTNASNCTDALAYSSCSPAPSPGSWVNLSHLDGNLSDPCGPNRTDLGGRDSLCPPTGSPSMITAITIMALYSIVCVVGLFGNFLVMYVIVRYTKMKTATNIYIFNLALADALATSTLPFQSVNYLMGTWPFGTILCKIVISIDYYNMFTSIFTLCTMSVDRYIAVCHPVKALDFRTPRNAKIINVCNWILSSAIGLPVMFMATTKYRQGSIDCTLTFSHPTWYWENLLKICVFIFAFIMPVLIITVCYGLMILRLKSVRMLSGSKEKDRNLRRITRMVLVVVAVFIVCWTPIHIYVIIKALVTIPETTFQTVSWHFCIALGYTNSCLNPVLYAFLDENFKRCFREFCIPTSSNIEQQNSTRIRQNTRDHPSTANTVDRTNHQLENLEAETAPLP

Row | Compound | Ki (mu opioid receptor) [nM] | Ki (delta opioid receptor [1]) [nM] | EC50 (delta opioid receptor [3]; [6]) [nM] | inhibition at 10 µM (delta opioid receptor [4]) [%] | Ki (mu opioid receptor; [7]) [nM] | Ki (delta opioid receptor [1]; [8]) [nM] | GTPγS δ-opioid receptor Rel Efficacy (delta opioid receptor [3]) | GTPγS δ-opioid receptor % Inh @10 μM (delta opioid receptor [4]) [%] | Ki (delta opioid receptor [5]) [nM] | other results
1 | COc1ccc(Oc2ncc(NC[C@@H]3CCCN3)c(Oc3ccc(OC)cc3)n2)cc1 [Cpd 1, [2,4-Bis-(4-methoxyphenoxy)pyrimidin-5-yl]pyrrolidin-2-(S)-ylmethylamine] | 3880 | 5.9 | – | – | – | – | – | – | – | EC50 ([2]; CHO-hMOR cell membranes, read-out: GTPγS μ-opioid receptor EC50): 84.3 µM; inhibition at 10 µM ([2]; read-out: GTPγS μ-opioid receptor % Inh @10 μM): 19.5%
2 | COc1ccc(Oc2ncc(NC3CCCNC3)c(Oc3ccc(OC)cc3)n2)cc1 (stereo not drawn) [Cpd 2] | 2440 | 7.61 | 828 | 8.16 | – | – | – | – | – | –
3 | COc1ccc(Oc2ncc(NC3CCCC(N)C3)c(Oc3ccc(OC)cc3)n2)cc1 (stereo not drawn) [Cpd 3] | – | – | – | 12.8 | 1670 | 16.1 | 1.106 | 19.733 | – | EC50 (delta opioid receptor [3]; GTPγS δ-opioid receptor EC50): 559 nM and 92 nM and 206 nM
4 | COc1ccc(Oc2nc(C#Cc3ccccc3)ncc2NC[C@@H]2CCCN2)cc1 [Cpd 4, [4-(4-Methoxy-phenoxy)-2-phenylethynyl-pyrimidin-5-yl]-pyrrolidin-2-(S)-ylmethyl-amine] | – | – | – | 8.94 | 4420 | 16.3 | – | – | – | EC50 (delta opioid receptor [3]; GTPγS δ-opioid receptor EC50): 1030 nM
5 | CCN(CC)C(=O)c1ccc(Oc2ncc(NC[C@@H]3CCCN3)c(Oc3ccc(OC)cc3)n2)cc1 [Cpd 5, N,N-Diethyl-4-{4-(4-methoxy-phenoxy)-5-[(pyrrolidin-2-(S)-ylmethyl)-amino]pyrimidin-2-yloxy}-benzamide] | 18.2 | 18.3 | 2620 | 26.4 | – | – | – | – | – | –
6 | COc1ccc(Oc2ncc(NCC3CCCN3)c(Oc3ccc(OC)cc3)n2)cc1 (stereo not drawn) [Cpd 7] | – | – | 221 | – | 2850 | 68.4 | – | 20.645 | – | –
7 | COc1ccc(Oc2nc(Oc3cccnc3)ncc2NC[C@@H]2CCCN2)cc1 [Cpd 45] | – | – | 734 | – | – | – | 1.178 | – | 1.45 | –
8 | COc1ccc(Oc2nc(Sc3cccc(F)c3)ncc2NC[C@@H]2CCCN2)cc1 [Cpd 47] | – | – | 193 | – | – | – | 1.079 | – | 0.739 | GTPγS δ-Rel Efficacy @200 nM (delta opioid receptor [3]): 0.481
9 | N-{2-[2,4-Bis-(4-methoxy-phenoxy)-pyrimidin-5-ylamino]ethyl}-guanidine [Cpd 44] | – | – | 1110 | – | – | – | – | 15.636 | – | –
10 | [2-(3-Fluoro-phenoxy)-4-(4-methoxy-phenoxy)-pyrimidin-5-yl]-pyrrolidin-2-(S)-ylmethyl-amine [Cpd 46] | – | – | 28 | – | – | – | 0.983 | – | 0.288 | GTPγS δ-Rel Efficacy @200 nM (delta opioid receptor [3]): 0.770
